Experimental data published in patent publication US6737409B2, “Dolastatin 10 derivatives” (Hoffmann-La Roche Inc., priority 2001, dated 2004).
Like-named read-outs stand apart in the source and are kept apart here.

Columns and labels:
[1] = Maximum tolerated dose (MTD) by i.v. administration in mice; settings: mouse, in vivo, iv, read-out: maximum tolerated doses (MTD)
Protocol: The maximum tolerated doses (MTD) of the following representative compounds
of the present invention were examined by i.v. administration in mice. The respective MTD values of the compounds were 14, 18, 10, 8, 8, 2 and 2 mg/kg.

HCT 116 = experiment: Antiproliferative activity assay (WST-8); type: cell-based; settings: Homo sapiens, HCT-116, 96 h
Protocol: Antiproliferative activity assay was carried out as follows. A single suspension of tumor cells was inoculated to the serially diluted 96-well microtestplate. Then the testplate was incubated in the 5% CO2 ambience at 37° C. for 4 days (2-3×10^3 cells/well). The degree of cell growth in a monolayer was measured by using WST-8 (Dojindo, Japan). IC50 values of drugs against tumor cells were calculated as the concentration of drug yielding 50% OD of the control growth.

[2] = incubated 4 days, WST-8, concentration of drug yielding 50% OD of the control growth, read-out: HCT 116 IC50

Row | Structure (SMILES) | MTD [1] [mg/kg] | IC50 (HCT 116; read-out: HCT 116 IC50 (nM)) [nM] | IC50 (HCT 116; [2]) [nM]
1 | CCC(C)C(C(CC(=O)N1CCCC1C(SC)C(C)C(=O)NCCc1cccc(O)c1)OC)N(C)C(=O)C(NC(=O)C(C(C)C)N(C)C)C(C)C (single isomer, unassigned) [N-(1-{[1-sec-Butyl-4-(2-{2-[2-(3-hydroxy-phenyl)-ethylcarbamoyl]-1-methylsulfanyl-propyl}-pyrrolidin-1-yl)-2-methoxy-4-oxo-butyl]-methyl-carbamoyl}-2-methyl-propyl)-2-dimethylamino-3-methyl-butyramide] | 2 | 0.19 | 
2 | CCC(C)C(C(CC(=O)N1CCCC1C(CC(=O)NCCc1ccccc1)SC)OC)N(C)C(=O)C(NC(=O)C(NC)C(C)C)C(C)C (stereo not shown) [N-[1-({1-sec-Butyl-2-methoxy-4-[2-(1-methylsulfanyl-2-phenethylcarbamoylethyl)pyrrolidin-1-yl]-4-oxo-butyl}-methyl-carbamoyl)-2-methyl-propyl]-3-methyl-2-methylamino-butyramide] | 14 |  | 0.12
3 | CCC(C)C(C(CC(=O)N1CCCC1C(CC(=O)NCCc1ccccc1)S(C)(=O)=O)OC)N(C)C(=O)C(NC(=O)C(NC)C(C)C)C(C)C (stereo not shown) [N-[1-({1-sec-Butyl-4-[2-(1-methanesulfonyl-2-phenethylcarbamoyl-ethyl)-pyrrolidin-1-yl]-2-methoxy-4-oxo-butyl}-methyl-carbamoyl)-2-methyl-propyl]-3-methyl-2-methylamino-butyramide] | 18 |  | 0.77
4 | CCC(C)C(C(CC(=O)N1CCCC1C(SC)C(C)C(=O)N(C)CCc1cccc(O)c1)OC)N(C)C(=O)C(NC(=O)C(C(C)C)N(C)C)C(C)C (single isomer, unassigned) [N-[1-({1-sec-Butyl-4-[2-(2-{[2-(3-hydroxy-phenyl)-ethyl]-methyl-carbamoyl}-1-methylsulfanyl-propyl)-pyrrolidin-1-yl]-2-methoxy-4-oxo-butyl}-methyl-carbamoyl)-2-methyl-propyl]-2-dimethylamino-3-methyl-butyramide] | 8 |  | 0.66
5 | CCSC(C(C)C(=O)NCCc1cccc(O)c1)C1CCCN1C(=O)CC(OC)C(C(C)CC)N(C)C(=O)C(NC(=O)C(C(C)C)N(C)C)C(C)C (single isomer, unassigned) [N-(1-{[1-sec-Butyl-4-(2-{1-ethylsulfanyl-2-[2-(3-hydroxy-phenyl)-ethylcarbamoyl]-propyl}-pyrrolidin-1-yl)-2-methoxy-4-oxo-butyl]-methyl-carbamoyl}-2-methyl-propyl)-2-dimethylamino-3-methyl-butyramide] | 2 | 0.84 | 
